For 109 compounds, melting point results are on record in a melting point compilation (Tetko et al.).

Broadly, the melting point is the temperature of the solid-liquid transition.

Regarding `Clc1cc2c(cc1Cl)Oc1cc(Br)c(Br)cc1O2`, the melting point is 316 °C.

Regarding `C=C(C)CCCCCCCCCCCC`, the melting point is -15 °C.

In turn, `CCC(N)(CO)CO` came in with a melting point of 37.5 °C.

Turning to `Cc1ccc(C=NO)cc1`, the melting point amounted to 126 °C.

For `COc1cc2noc(-c3ccc(C)o3)c2cc1OC`, the melting point stood at 146 °C.

`Cc1n[nH]c(C)c1Oc1ccc(Cl)cc1` yielded a melting point of 139 to 141 °C.

Compound `CC(C)(C)OC(=O)N1CC(C#N)C1` registered a melting point of 70 °C.

In the case of `O=[N+]([O-])c1cccc(NN=Cc2ccccc2)c1`, the melting point is 196 °C.

In turn, `COC(=O)c1scc(S(=O)(=O)C(C)C)c1S(=O)(=O)Cl` yielded a melting point of 128 to 129 °C.

For the compound `CC1(C)C=C(C(=O)ON2C(=O)CCC2=O)C(C)(C)N1O`, the melting point is 175 to 178 °C.

`O=C(O)C=CCCl`: the melting point amounted to 83 °C.

In the case of `CCOC(=O)c1c(-c2ccc(C)c(C)c2)csc1N`, the melting point came to 82 °C.

On to `COc1cccc(OCc2ccccc2Cl)c1C#N`, for which the melting point was 152 to 154 °C.

Compound `Cc1ccc(N)cc1NS(C)(=O)=O` returned a melting point of 170 to 172 °C.

Compound `Cc1ccc(O)c(C=O)c1` registered a melting point of 56 °C.

Take `O=C1NC(=O)C(=Cc2ccc(-c3ccccc3Br)o2)C(=O)N1`: the melting point was 255 °C.

`Cc1ncsc1C`: the melting point amounted to 83.5 °C.

Take `FC(F)(F)c1nn(CN2CCN(Cn3nc(C(F)(F)F)n(N=Cc4cccs4)c3=S)CC2)c(=S)n1N=Cc1cccs1`: the melting point stood at 187 °C.

`CC1CCCCC1(C)C` (centres undefined) returned a melting point of -29 °C.

The compound `CCOC(=O)c1c(NS(=O)(=O)c2ccc(Cl)cc2)nn(-c2ccc([N+](=O)[O-])cc2)c1N` had a melting point of 200 °C.

In turn, `O=C(Cl)/C=C/c1ccc(/C=C/C(=O)Cl)cc1` had a melting point of 171 °C.

In turn, `N#Cc1ccnc(F)c1` had a melting point of 32 °C.

Consider `O=C(Nc1cccnc1Cl)c1ccccc1`, for which the melting point is 91 to 92 °C.

As to `O=C(CBr)c1cc(-c2ccccc2)no1`, the melting point lay in the range of 109 to 112 °C.

As to `COC(=O)c1ccc2cc(OC)ccc2c1`, the melting point worked out at 130 °C.

`CC(=O)C=NO` yielded a melting point of 69 °C.

`Cc1cncc(Oc2ccc(Br)cc2)n1` yielded a melting point of 58.5 to 60 °C.

`O=P(c1ccccc1)(c1ccccc1)C1C=COC2=C1CCCC2` (centres undefined) came in with a melting point of 176 to 177 °C.

`CCCCN1C(=O)c2ccccc2C1=O` displayed a melting point of 34 °C.

`FC(F)C(F)(F)C(F)(F)C(F)(F)C(F)(F)C(F)(F)C(F)(F)C(F)(F)C(F)(F)C(F)F` registered a melting point of 42 to 43 °C.

Compound `Nc1ccccc1-c1cccnc1` returned a melting point of 72 °C.

For `CCOC(=O)c1c(SC)n[nH]c1N`, the melting point is 142 to 143 °C.

Regarding `CCCCC(=O)N(C)C`, the melting point was -51 °C.

Regarding `O=C(Nc1ccc([N+](=O)[O-])cc1[N+](=O)[O-])C(F)(F)C(F)(F)C(F)(F)C(F)(F)C(F)(F)C(F)(F)C(F)(F)C(F)(F)F`, the melting point worked out at 125 °C.

Turning to `O=C(Nc1ccc(Cl)c(Cl)c1)c1cc(Cl)ccc1O`, the melting point worked out at 247 °C.

For `Cc1c(Br)cc([N+](=O)[O-])c(N)c1C`, the melting point came out at 153 °C.

Compound `Cc1cc(I)c(C)c(C)c1C` yielded a melting point of 31 °C.

`c1ccc2c(c1)OCCOCCOCCOCCOc1ccccc1OCCO2`: the melting point fell in the range of 48 to 52 °C.

Regarding `CN(C)S(=O)(=O)N(SC(F)(Cl)Cl)c1ccccc1`, the melting point turned out to be 106 °C.

On to `COc1ccc(CNc2ccccn2)cc1`, for which the melting point was in the range of 121 to 126 °C.

Compound `CCCCCCCCCCCCCCCc1cccc(O)c1O` registered a melting point of 59.5 °C.

Compound `Oc1ccc(SC(F)(F)F)cc1` came in with a melting point of 59 °C.

In turn, `CC(=O)c1ccc(Cl)c(Cl)c1Cl` returned a melting point of 62 °C.

Consider `C#CCCC#C`, for which the melting point was -6 °C.

`O=C1CC2C(Cl)CC1C2C(=O)O` (centres undefined) gave a melting point of 157 to 160 °C.

In the case of `O=c1cc(C(F)(F)F)c2ccc(O)cc2o1`, the melting point was 179 to 182 °C.

On to `O=C1C2(CCCCC2)C(=O)C12CCCCC2`, for which the melting point amounted to 166 °C.

The compound `Nc1ccnc(N)c1` had a melting point of 107 °C.

The compound `Cc1cc(Cl)c(C)cc1N` registered a melting point of 94 to 96 °C.

Compound `CCCCCCCCc1ccc(C(=O)CCC(=O)O)cc1` came in with a melting point of 91 to 93 °C.

Compound `O=S(=O)(Cl)c1cc(S(=O)(=O)Cl)c(Cl)s1` returned a melting point of 79 to 84 °C.

For `COCC(C)c1c(O)c2c(c(OC)c1OC)C1(C)CCCC(C)(C)C1C(=O)C2=O` (centres undefined), the melting point lay within 90 to 92 °C.

Turning to `O=C(O)C=Cc1cccc(OC(F)(F)F)c1`, the melting point lay within 93 to 96 °C.

Compound `COc1ccc2c(c1)CCCN2` gave a melting point of 42.5 °C.

Compound `CC(=O)OCN1C(=O)NC(c2ccccc2)(c2ccccc2)C1=O` displayed a melting point of 158 °C.

Turning to `Cc1c(F)c(F)c(C)c(F)c1F`, the melting point is 36 °C.

For `CCOC(=O)c1nc(-c2ccc(S(=O)(=O)Cl)s2)no1`, the melting point fell in the range of 114 to 115 °C.

`FC(F)=C(F)F`: the melting point is -142 °C.

In turn, `NC(=O)NN=C(O)Cc1ccccc1` displayed a melting point of 168 °C.

Compound `O=C(CS)Nc1ccc2ccccc2c1` registered a melting point of 112 °C.

In turn, `C=CCCCCCCCCCCCCCCCCC1CC(=O)OC1=O` (centres undefined) came in with a melting point of 67.2 °C.

`O=Cc1csc(-c2ccc(C(F)(F)F)cc2)n1` showed a melting point of 103 to 105 °C.

In the case of `Cc1c(Br)cccc1[N+](=O)[O-]`, the melting point stood at 40 °C.

In turn, `O=C1C(c2cccc3ccccc23)=[N+]([O-])c2cc([N+](=O)[O-])ccc21` displayed a melting point of 223 °C.

As for `c1ccc(/N=N/c2ccccc2/N=N/c2ccccc2)cc1`, the melting point turned out to be 111 °C.

`Cc1nc(/C(C#N)=N/Nc2ccc(Cl)cc2)sc1/N=N/c1ccccc1` returned a melting point of 225 °C.

Consider `CC(C)C1CCC(Cc2ccc(Cl)cc2)C1(O)Cn1cncn1` (centres undefined), for which the melting point was 89 °C.

On to `c1ccc(P(c2ccccc2)c2ccc3ccccc3c2-c2c(P(c3ccccc3)c3ccccc3)ccc3ccccc23)cc1`, for which the melting point is 283 °C.

In turn, `Cn1c(/C(C#N)=N/Nc2ccc(Cl)cc2)nc2ccccc21` gave a melting point of 215 °C.

In turn, `CC(=O)OC1C2=C(C(=O)C(OC(C)=O)C3(CC3C)C2=O)C2(C)CCC(C)=C(C)C2C1O` (centres undefined) displayed a melting point of 176 to 178 °C.

`N#Cc1sc2nc(-c3ccccc3)cc(C(F)(F)F)c2c1N` displayed a melting point of 236 to 238 °C.

The compound `Nc1ccc([N+](=O)[O-])cc1O` yielded a melting point of 208 °C.

For the compound `O=C(c1ccc(Br)cc1)c1[nH]c2c(c1O)C(c1ccc(Br)cc1)c1c(c3ccccc3oc1=O)O2` (centres undefined), the melting point came out at 230 °C.

On to `COc1cc(OC)nc(Sc2cccc3c2C(=O)OC3C)n1` (centres undefined), for which the melting point was 163 °C.

On to `COc1ccc(N(C)C(=S)Cl)cc1`, for which the melting point is 70 to 72 °C.

As to `Oc1ccccc1CNCc1ccccc1O`, the melting point was determined as 162 °C.

`N#Cc1ccnc2ccccc12` had a melting point of 104 °C.

`COC(=O)C1(C(=O)OC)C=C(OC)c2ccccc21` yielded a melting point of 114 to 115 °C.

In turn, `c1ccc2c3c([nH]c2c1)CCCCCC3` came in with a melting point of 74 °C.

`CCCC=CCCC` registered a melting point of -90 °C.

In turn, `NNC(=O)c1ccc(Cl)c(Cl)c1` returned a melting point of 154 to 160 °C.

Consider `CCOC(=O)N1CCNC(c2ccccc2)C1` (centres undefined), for which the melting point was 63 °C.

On to `Cc1cc(C)c(C#N)c(C)c1`, for which the melting point is 53 °C.

Compound `O=C(O)C1OC1C(=O)O` (centres undefined) came in with a melting point of 148 to 149 °C.

The compound `CN1CCOc2cc(C#N)cnc21` had a melting point of 107 to 109 °C.

`O=C(Cl)/C=C/c1cccc(C(F)(F)F)c1` registered a melting point of 30 °C.

The compound `S=C=Nc1ccc(Oc2ccccc2)cc1` had a melting point of 42 °C.

`OCC1C2C=CC(C2)C1CO` (centres undefined): the melting point lay in the range of 85 to 85.5 °C.

With `COc1ccc(-c2cc(C(F)(F)F)[nH]n2)cc1OC`, the melting point lay in the range of 150 to 156 °C.

With `CC(=O)Nc1ccc([N+](=O)[O-])c(F)c1`, the melting point worked out at 176 °C.

For the compound `C(=C(\Oc1ccccc1)c1nc2ccccc2s1)/c1ccc2c(c1)OCO2`, the melting point amounted to 170 °C.

`O=c1c(Br)c(SCc2ccccc2)cnn1-c1ccccc1` returned a melting point of 137 to 138 °C.

`CC(=O)Nc1ccc(Br)cc1C(=O)O` showed a melting point of 223 °C.

`COC(=O)c1ccc(I)cc1O` registered a melting point of 69 °C.

As for `Nc1ccc(O)cc1[N+](=O)[O-]`, the melting point is 151 °C.

As to `O=C(O)c1ccc(C(F)(F)F)cc1C(=O)O`, the melting point was 151 °C.

Consider `O=Cc1cc(F)cc2c1OCOC2`, for which the melting point lay in the range of 113 to 114 °C.

In the case of `CC(C)(C)N(NC(=O)c1ccccc1)C(=O)c1ccccc1Cl`, the melting point is 162 °C.

Turning to `CCOc1ccc(C=O)cc1OCC`, the melting point amounted to 22 °C.

Compound `CCCOCC(C)O` (centres undefined) gave a melting point of -80 °C.

The compound `O=C1N[C@H](Cc2ccccc2)CO1` displayed a melting point of 87 to 90 °C.

With `O=C(C=NNc1ccccc1)c1ccc(C(=O)C=NNc2ccccc2)c([N+](=O)[O-])c1`, the melting point is 100 °C.

The compound `Clc1ccc(CSC(Cn2cncn2)=Nc2ccc(Cl)cc2Cl)cc1` registered a melting point of 90 °C.

As for `O=C(O)c1ccccc1C(=O)c1ccc(F)cc1`, the melting point is 140 to 141 °C.

`CC(C=CC=C(C)C=CC1=C(C)C(=O)C(O)CC1(C)C)=CC=CC=C(C)C=CC=C(C)C=CC1=C(C)C(=O)C(O)CC1(C)C` (centres undefined) showed a melting point of 182 °C.

Compound `CN(c1c(Br)cc(Br)cc1Br)c1c([N+](=O)[O-])cc([N+](=O)[O-])cc1C(F)(F)F` displayed a melting point of 150 °C.

As to `CCCCCCCCCCCCCCCCCC(=O)OC(C)C`, the melting point worked out at 28 °C.

`CCOC(=O)Cc1cccc2ccccc12` came in with a melting point of 88.5 °C.

Regarding `O=C(NCC(c1ccccc1)c1ccccc1)c1ccccc1`, the melting point was 123 °C.
